A short description of series [1]: Storage stability of the crystalline form at controlled temperature and relative humidity. The note with it: up to at least 24 weeks, hydrochloride. In kind it is physicochemical. From the text:
Particularly, crystalline Vemurafenib HCl form II has high chemical purity and excellent stability properties. […] Therefore, the crystalline Vemurafenib HCl form II may be used to prepare an oral formulation which is stable and has a relatively small tablet or capsule size as the molar ratio of Vemurafenib to HCl is about 1:1, which is highly advantageous for preparing pharmaceutical compositions with high drug load.

The conditions of series [2]: as observed in WO 2010/114928 and WO 2010/129570; cited from earlier work.
A short description of series [3]: Solubility. In kind it is physicochemical.
For series [4] the following is noted: conditions not given; cited from earlier work.
The mark [5] stands for this setting: 25° C. and 60% relative humidity (RH).

These results are taken from US9440971B2, “Solid state forms of vemurafenib hydrochloride” (ratiopharm GmbH, priority 2013, dated 2016).

Counter-ions that a name gives are not always drawn. Like-named read-outs stand apart in the source and are kept apart here.

Take `CCCS(=O)(=O)Nc1ccc(F)c(C(=O)c2c[nH]c3ncc(-c4ccc(Cl)cc4)cc23)c1F` [crystalline Vemurafenib HCl form I, Vemurafenib hydrochloride]: the stability upon storage entry in series [1] (setting [5]) and in series [1] (30° C./65% RH) was “converts to Vemurafenib free base” throughout.

Regarding `CCCS(=O)(=O)Nc1ccc(F)c(C(=O)c2c[nH]c3ncc(-c4ccc(Cl)cc4)cc23)c1F` [Vemurafenib, propane-1-sulfonic acid {3-[5-(4-chlorophenyl)-1H-pyrrolo[2,3-b]pyridine-3-carbonyl]-2,4-difluoro-phenyl}-amide], the solubility entry in series [2] is reported as “extremely low solubility”. For `CCCS(=O)(=O)Nc1ccc(F)c(C(=O)c2c[nH]c3ncc(-c4ccc(Cl)cc4)cc23)c1F` [crystalline Vemurafenib HCl form II, Vemurafenib hydrochloride], the stability upon storage result in series [1] (setting [5]) and in series [1] (30° C./65% RH) was “stable” throughout. Further, in series [3], the solubility entry is “good solubility”. In the case of `CCCS(=O)(=O)Nc1ccc(F)c(C(=O)c2c[nH]c3ncc(-c4ccc(Cl)cc4)cc23)c1F` [Amorphous Vemurafenib], the “stability of amorphous form” value in series [4] is “not stable”.
